Experimental data reported in patent US6861428B2, “Water-soluble phenylpyridazine compounds and compositions containing the same” (Kowa Co., Ltd., priority 2001, dated 2005).

Test system: not given
Assay: not given
Details: not given

SMILES	melting point
Cc1c(-c2ccc(C(F)(F)F)cc2)nn(CC(C)C)c(=O)c1N1CCN(C)CC1.Cl.Cl	249.9 to 252.8 °C
Cc1cc(-c2cc(CN3CCNCC3)c(=O)n(Cc3ccccc3)n2)ccc1F.Cl.Cl	162.7 to 180.7 °C (dec.)
CC(C)Cn1nc(-c2ccc(-c3ccccc3)cc2)cc(CN2CCNCC2)c1=O.Cl.Cl	226.8 to 228 °C
CC(C)Cn1nc(-c2ccc(F)c(F)c2)cc(CN2CCNCC2)c1=O.Cl.Cl	182.5 to 186 °C
Cc1cc(-c2cc(CN(C)C)c(=O)n(Cc3ccccc3)n2)ccc1F.Cl	225.3 to 226 °C
Cc1c(-c2ccc(-c3ccccc3)cc2)nn(CC(C)C)c(=O)c1N(C)C.Cl	243.9 to 244.1 °C
Cc1cc(-c2cc(CN3CCN(C)CC3)c(=O)n(CC=Cc3ccccc3)n2)ccc1F.Cl.Cl	236.1 to 237.1 °C
COc1ccc(-c2cc(CCCN3CCN(C)CC3)c(=O)n(Cc3ccc(F)cc3)n2)cc1F [Example 239, 2-(4-fluorobenzyl)-6-(3-fluoro-4-methoxyphenyl)-4-[3-(4-methyl-1-piperazinyl)propyl]-2H-pyridazin-3-one]	108 to 109 °C
Cc1cc(-c2cc(CN3CCN(C)CC3)c(=O)n(Cc3ccccc3)n2)ccc1F.Cl.Cl	240 to 242.5 °C (dec.)
Cc1cc(-c2cc(CN3CCNCC3)c(=O)n(CC=Cc3ccccc3)n2)ccc1F.Cl.Cl	171.1 to 187.1 °C (dec.)
CC(C)Cn1nc(-c2ccc(C(F)(F)F)cc2)cc(CN2CCNCC2)c1=O.Cl.Cl	210.8 to 212.5 °C
Cc1cc(-c2cc(CN3CCN(C)CC3)c(=O)n(Cc3ccccc3Cl)n2)ccc1F [Example 224, 2-(2-chlorobenzyl)-6-(4-fluoro-3-methylphenyl)-4-(4-methyl-1-piperazinyl)methyl-2H-pyridazin-3-one]	149.7 to 150.9 °C
CC(C)Cn1nc(-c2ccc(C(F)(F)F)cc2)cc(CN(C)C)c1=O.Cl	242.2 to 242.3 °C
Cc1ccc(-c2cc(CN)c(=O)n(CC(C)C)n2)cc1 [Example 50, 4-aminomethyl-2-isobutyl-6-(4-methylphenyl)-2H-pyridazin-3-one]	74.9 to 77.9 °C
COc1ccc(-c2cc(CN3CCN(C)CC3)c(=O)n(CC(C)C)n2)cc1Cl.Cl.Cl	235.8 to 236.7 °C
COc1ccc(-c2cc(CN3CCNCC3)c(=O)n(CC(C)C)n2)cc1F.Cl.Cl	163 to 177 °C (dec.)
Cc1cc(-c2cc(CN3CCN(C)CC3)c(=O)n(Cc3ccc(Cl)cc3)n2)ccc1F.Cl.Cl	246.4 to 249.7 °C (dec.)
Cc1cc(-c2cc(CN)c(=O)n(Cc3ccccc3Cl)n2)ccc1F.Cl	201.9 to 206.4 °C
Cc1c(-c2ccc(S(C)(=O)=O)cc2)nn(CC2CC2)c(=O)c1N(C)C.Cl	239.5 to 240.7 °C
Cc1cc(-c2cc(CN)c(=O)n(Cc3ccccc3Cl)n2)ccc1F [Example 237, 4-aminomethyl-2-(2-chlorobenzyl)-6-(4-fluoro-3-methylphenyl)-2H-pyridazin-3-one]	97.6 to 102.2 °C
CSc1ccc(-c2cc(CN3CCNCC3)c(=O)n(CC(C)C)n2)cc1.Cl.Cl	248.5 to 253.7 °C (dec.)
COc1ccc(-c2cc(CN)c(=O)n(Cc3ccc(Cl)cc3)n2)cc1F [Example 205, 4-aminomethyl-2-(4-chlorobenzyl)-6-(3-fluoro-4-methoxyphenyl)-2H-pyridazin-3-one]	128.5 to 131.4 °C
CN1CCN(Cc2cc(-c3ccc(S(C)(=O)=O)cc3)nn(CC3CC3)c2=O)CC1.Cl.Cl	209 to 211.4 °C
COc1ccc(-c2cc(CN)c(=O)n(Cc3ccc(F)cc3)n2)cc1F [Example 194, 4-aminomethyl-2-(4-fluorobenzyl)-6-(3-fluoro-4-methoxyphenyl)-2H-pyridazin-3-one]	145 to 149 °C
CC(C)Cn1nc(-c2ccc([S+](C)[O-])cc2)cc(CN(C)C)c1=O.Cl (centres unmarked)	204.2 to 206 °C
COc1ccc(-c2cc(CN(C)C)c(=O)n(CCCc3ccc(F)cc3)n2)cc1F [Example 197, 4-dimethylaminomethyl-6-(3-fluoro-4-methoxyphenyl)-2-[3-(4-fluorophenyl)propyl]-2H-pyridazin-3-one]	97 to 100 °C

SMILES	melting point
COc1ccc(-c2cc(CN(C)C)c(=O)n(CC(C)C)n2)cc1F.Cl	212.4 to 212.8 °C
CN1CCN(Cc2cc(-c3ccc([S+](C)[O-])cc3)nn(CC3CC3)c2=O)CC1.Cl.Cl (centres unmarked)	80 °C (dec.)
CC(C)Cn1nc(-c2ccc(S(C)(=O)=O)cc2)cc(CN2CCNCC2)c1=O.Cl.Cl	222.4 to 224.2 °C
CC(C)Cn1nc(-c2ccc(-c3ccccc3)cc2)cc(CN2CCN(C)CC2)c1=O.Cl.Cl	262.2 to 263.6 °C
Cc1c(-c2ccccc2)nn(CC(C)C)c(=O)c1N1CCNCC1.Cl.Cl	154.3 to 159.5 °C
COc1ccc(-c2cc(CN3CCNCC3)c(=O)n(CC3CC3)n2)cc1F [Example 20, 2-cyclopropylmethyl-6-(3-fluoro-4-methoxyphenyl)-4-(1-piperazinyl)methyl-2H-pyridazin-3-one]	111.5 to 118 °C
COc1ccc(-c2cc(CN(C)C)c(=O)n(CC(C)C)n2)cc1Cl.Cl	213.6 to 214.3 °C
COc1ccc(-c2cc(CN)c(=O)n(CCCc3ccc(F)cc3)n2)cc1F [Example 200, 4-aminomethyl-6-(3-fluoro-4-methoxyphenyl)-2-[3-(4-fluorophenyl)propyl]-2H-pyridazin-3-one]	82 to 84 °C
Cc1ccc(-c2cc(CN3CCNCC3)c(=O)n(CC(C)C)n2)cc1F.Cl.Cl	186.2 to 195 °C (dec.)
Cc1cc(-c2cc(CN(C)C)c(=O)n(CC=Cc3ccccc3)n2)ccc1F.Cl	183.6 to 184.5 °C
COc1ccc(-c2cc(CN3CCNCC3)c(=O)n(CC(C)C)n2)cc1Cl.Cl.Cl	203.6 to 204.5 °C
CC(C)Cn1nc(-c2ccc(S(C)(=O)=O)cc2)cc(CN(C)C)c1=O.Cl	221.4 to 223.3 °C
CSc1ccc(-c2nn(CC3CC3)c(=O)c(N(C)C)c2C)cc1.Cl [Example 153, 2-cyclopropylmethyl-4-dimethylamino-methyl-6-[4-(methylthio)phenyl]-2H-pyridazin-3-one hydrochloride]	230.2 to 232.3 °C
CC(C)Cn1nc(-c2ccccc2)cc(CN(C)C)c1=O.Cl	221.7 to 222.3 °C
Cc1ccc(-c2cc(CN3CCN(C)CC3)c(=O)n(CC(C)C)n2)cc1F.Cl.Cl	248.5 to 252 °C (dec.)
COc1ccc(-c2cc(CN(C)C)c(=O)n(Cc3ccc(F)cc3)n2)cc1F [Example 190, 4-dimethylaminomethyl-2-(4-fluorobenzyl)-6-(3-fluoro-4-methoxyphenyl)-2H-pyridazin-3-one]	127 to 129 °C
Cc1cc(-c2cc(CN3CCNCC3)c(=O)n(CC=Cc3ccc(Cl)cc3)n2)ccc1F.Cl.Cl	186.7 to 197 °C (dec.)
COc1ccc(-c2cc(CN(C)C)c(=O)n(Cc3ccc(Cl)cc3)n2)cc1F [Example 203, 2-(4-chlorobenzyl)-4-dimethylaminomethyl-6-(3-fluoro-4-methoxyphenyl)-2H-pyridazin-3-one]	95.3 to 96.7 °C
Cc1cc(-c2cc(CN3CCN(C)CC3)c(=O)n(Cc3ccccc3Cl)n2)ccc1F.Cl.Cl	191 to 202 °C (dec.)
Cc1ccc(-c2nn(CC(C)C)c(=O)c(NC(CO)CO)c2C)cc1 [Example 52, 4-(1,3-dihydroxypropan-2-yl)amino-methyl-2-isobutyl-6-(4-methylphenyl)-2H-pyridazin-3-one]	134.1 to 135.2 °C
Cc1c(-c2ccc([S+](C)[O-])cc2)nn(CC(C)C)c(=O)c1N1CCN(C)CC1.Cl.Cl (centres unmarked)	224.5 to 229.1 °C (dec.)
CC(C)Cn1nc(-c2ccc(F)c(F)c2)cc(CN2CCN(C)CC2)c1=O.Cl.Cl	242.5 to 243.4 °C
COc1ccc(-c2cc(CN3CCN(C)CC3)c(=O)n(CC(C)C)n2)cc1F.Cl.Cl	236.9 to 237 °C
Cc1c(-c2ccccc2)nn(CC(C)C)c(=O)c1N1CCN(C)CC1.Cl.Cl	243.8 to 244.3 °C
Cc1cc(-c2nn(CC=Cc3ccc(Cl)cc3)c(=O)c(N(C)C)c2C)ccc1F.Cl	201.3 to 201.9 °C
CNCc1cc(-c2ccc(OC)c(F)c2)nn(CC2CC2)c1=O	169.1 to 170.7 °C

Test system: interleukin-1β production
Assay: Inhibitory activity against interleukin-1β production (LPS-stimulated HL-60 cells, ELISA)
Type: cell-based
Details: Homo sapiens, 72 h, lipopolysaccharide 10 μg/mL, 3 days, Table 1, read-out: IL-1β production inhibiting activity IC50
Procedure: Inhibitory Activity Against Interleukin-1β Production
HL-60 cells were cultured for 4 days until confluence on RPMI 1640 medium with 10% fetal bovine serum (FBS) added thereto. The medium was centrifuged. The supernatant was discarded, and the cells were then suspended at 1×10^6 cells/mL on RPMI 1640 medium with 3% FBS, and lipopolysaccharide was added to give a final concentration of 10 μg/mL. The culture was inoculated at 1 mL/well to a 24-well plate. A sample compound was added at 1 μL/well, followed by culturing for 3 days. Three days later, the amount of interleukin-1β in each culture was determined by ELISA. Each IC50 value was determined by a comparison in yield with a control to which no test sample was added.

SMILES	IC50 [µM]
COc1ccc(-c2cc(CCCN3CCNCC3)c(=O)n(CC3CC3)n2)cc1F [Example 213, 2-cyclopropylmethyl-6-(3-fluoro-4-methoxyphenyl)-4-[3-(1-piperazinyl)propyl]-2H-pyridazin-3-one]	0.24

Same assay, conditions: Homo sapiens, 72 h, lipopolysaccharide 10 μg/mL, 3 days, Table 2, read-out: IL-1β production inhibiting activity IC50

SMILES	IC50 [µM]
COc1ccc(-c2cc(CN3CCN(C)CC3)c(=O)n(CCCc3ccc(Cl)cc3)n2)cc1F [Example 242, 2-[3-(4-chlorophenyl)propyl]-6-(3-fluoro-4-methoxyphenyl)-4-(4-methyl-1-piperazinyl)methyl-2H-pyridazin-3-one]	7.7
Cc1cc(-c2cc(CN3CCN(C)CC3)c(=O)n(CCc3ccc(Cl)cc3)n2)ccc1F [Example 230, 2-[2-(4-chlorophenyl)ethyl]-6-(4-fluoro-3-methylphenyl)-4-(4-methyl-1-piperazinyl)methyl-2H-pyridazin-3-one]	4
Cc1cc(-c2cc(CN3CCN(C)CC3)c(=O)n(Cc3c(Cl)cccc3Cl)n2)ccc1F [Example 231, 2-(2,6-dichlorobenzyl)-6-(4-fluoro-3-methylphenyl)-4-(4-methyl-1-piperazinyl)methyl-2H-pyridazin-3-one]	5.7
